This note sets out measurements from patent US9409884B2 (Rigel Pharmaceuticals, Inc., priority 2012, dated 2016).

The target of this test is AMPK. Kind of test: AMPK activation, enzyme-linked immunosorbent assay. It counts as biochemical. Conditions: Table 14, compounds of Table 7. Summed up:
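AMPK activation by test compounds was measured by enzyme-linked immunosorbent assay.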
Turning to `COc1ccc(C(=O)C2CCN(C(=O)c3ccc(C(=O)NC4CCN(Cc5ccc(F)c(OC)c5)CC4(C)C)cn3)CC2)cc1` (stereo not shown) [Compound 7-87, N-(1-(4-fluoro-3-methoxybenzyl)-3,3-dimethylpiperidin-4-yl)-6-(4-(4-methoxybenzoyl)piperidine-1-carbonyl)nicotinamide], the EC50 (as a rule, the midpoint of the concentration-response curve) is 1000 to 10000 nM. For `COc1ccc(C(=O)C2CCN(C(=O)c3ccc(C(=O)NC4CCN(Cc5ccc(C#N)c(OC)c5)CC4(C)C)cn3)CC2)cc1` (stereo not shown) [Compound 7-89, N-(1-(4-cyano-3-methoxybenzyl)-3,3-dimethylpiperidin-4-yl)-6-(4-(4-methoxybenzoyl)piperidine-1-carbonyl)nicotinamide] the value was 1000 to 10000 nM; for `COc1ccc(C(=O)C2CCN(C(=O)c3ccc(C(=O)NC4CCN(Cc5ccc(OC)c(C#N)c5)CC4(C)C)cn3)CC2)cc1` (stereo not shown) [Compound 7-90, N-(1-(3-cyano-4-methoxybenzyl)-3,3-dimethylpiperidin-4-yl)-6-(4-(4-methoxybenzoyl)piperidine-1-carbonyl)nicotinamide], 1000 to 10000 nM.

The compound `CCNS(=O)(=O)c1ccc(CN2CCN(C(=O)c3ccc(C(=O)N4CCC(C(=O)c5ccc(OC)cc5)CC4)nc3)CC2)cc1` [Compound 7-91, N-ethyl-4-((4-(6-(4-(4-methoxybenzoyl)piperidine-1-carbonyl)nicotinoyl)piperazin-1-yl)methyl)benzenesulfonamide] yielded an EC50 of 10000 to 20000 nM. For `CCNS(=O)(=O)c1ccc(CN2CCN(C(=O)c3ccc(C(=O)Nc4ccc(Oc5ccc(C(C)=O)cc5)nc4)cn3)CC2)cc1` [Compound 7-92, N-(6-(4-acetylphenoxy)pyridin-3-yl)-6-(4-(4-(N-ethylsulfamoyl)benzyl)piperazine-1-carbonyl) nicotinamide] the value was 1000 to 10000 nM; for `COc1ccc(C(=O)C2CCN(C(=O)c3ccc(C(=O)NC4CCN(Cc5ccc(C#N)cc5)C[C@@H]4C)cn3)CC2)cc1` (stereo partly drawn) [Compound 7-93, N-((3,4-cis)-1-(4-cyanobenzyl)-3-methylpiperidin-4-yl)-6-(4-(4-methoxybenzoyl)piperidine-1-carbonyl)nicotinamide], < 1000 nM. The value for `COc1ccc(C(=O)C2CCN(C(=O)c3ccc(C(=O)NC4CCN(Cc5ccc(OC(F)(F)F)cc5)C[C@@H]4C)cn3)CC2)cc1` (stereo partly drawn) [Compound 7-94, 6-(4-(4-methoxybenzoyl)piperidine-1-carbonyl)-N-((3,4-cis)-3-methyl-1-(4-(trifluoromethoxy)benzyl)piperidin-4-yl)nicotinamide] was < 1000 nM; that for `COc1ccc(C(=O)C2CCN(C(=O)c3ccc(C(=O)NC4CCN(Cc5ccc(OC)c(F)c5)CC4(C)C)cn3)CC2)cc1` (stereo not shown) [Compound 7-95, N-(1-(3-fluoro-4-methoxybenzyl)-3,3-dimethylpiperidin-4-yl)-6-(4-(4-methoxybenzoyl)piperidine-1-carbonyl)nicotinamide] was < 1000 nM. For `COc1ccc(C(=O)C2CCN(C(=O)c3ccc(C(=O)NC4CCN(Cc5ccc(OC)c(F)c5)C[C@@H]4C)cn3)CC2)cc1` (stereo partly drawn) [Compound 7-96, N-((3,4-cis)-1-(3-fluoro-4-methoxybenzyl)-3-methylpiperidin-4-yl)-6-(4-(4-methoxybenzoyl)piperidine-1-carbonyl)nicotinamide] the value was < 1000 nM; for `COc1ccc(C(=O)C2CCN(C(=O)c3ccc(C(=O)NC4CCN(Cc5ccc(F)c(OC)c5)C[C@@H]4C)cn3)CC2)cc1` (stereo partly drawn) [Compound 7-97, N-((3,4-cis)-1-(4-fluoro-3-methoxybenzyl)-3-methylpiperidin-4-yl)-6-(4-(4-methoxybenzoyl)piperidine-1-carbonyl)nicotinamide], < 1000 nM; for `COc1ccc(C(=O)C2CCN(C(=O)c3ccc(C(=O)NC4CCN(Cc5ccc(C#N)c(F)c5)C[C@@H]4C)cn3)CC2)cc1` (stereo partly drawn) [Compound 7-98, N-((3,4-cis)-1-(4-cyano-3-fluorobenzyl)-3-methylpiperidin-4-yl)-6-(4-(4-methoxybenzoyl)piperidine-1-carbonyl)nicotinamide], < 1000 nM.

Turning to `COc1ccc(C(=O)C2CCN(C(=O)c3ccc(C(=O)NC4CCN(Cc5ccc(C#N)c(OC)c5)C[C@@H]4C)cn3)CC2)cc1` (stereo partly drawn) [Compound 7-99, N-((3,4-cis)-1-(4-cyano-3-methoxybenzyl)-3-methylpiperidin-4-yl)-6-(4-(4-methoxybenzoyl)piperidine-1-carbonyl)nicotinamide], the EC50 is < 1000 nM.

For the compound `COc1ccc(C(=O)C2CCN(C(=O)c3ccc(C(=O)NC4CCN(Cc5ccc(OC)c(C#N)c5)C[C@@H]4C)cn3)CC2)cc1` (stereo partly drawn) [Compound 7-100, N-((3,4-cis)-1-(3-cyano-4-methoxybenzyl)-3-methylpiperidin-4-yl)-6-(4-(4-methoxybenzoyl)piperidine-1-carbonyl)nicotinamide], the half-maximal effective concentration (EC50) was < 1000 nM. The value for `COc1ccc(C(=O)C2CCN(C(=O)c3ccc(C(=O)NC4CCN(Cc5ccc(C#N)cc5)C[C@@H]4C(F)(F)F)cn3)CC2)cc1` (stereo partly drawn) [Compound 7-101, N-((3,4-cis)-1-(4-cyanobenzyl)-3-(trifluoromethyl)piperidin-4-yl)-6-(4-(4-methoxybenzoyl)piperidine-1-carbonyl)nicotinamide] was < 1000 nM. On to `COc1ccc(CN2CCC(NC(=O)c3ccc(C(=O)N4CCC(C(=O)c5ccc(OC)cc5)CC4)nc3)[C@@H](C(F)(F)F)C2)cc1` (stereo partly drawn) [Compound 7-102, 6-(4-(4-methoxybenzoyl)piperidine-1-carbonyl)-N-((3,4-cis)-1-(4-methoxybenzyl)-3 - (trifluoromethyl)piperidin-4-yl)nicotinamide], for which the EC50 was < 1000 nM.

Take `COc1ccc(C(=O)C2CCN(C(=O)c3cc(C)c(C(=O)NC4CCN(Cc5ccc(C#N)cc5)CC4)cn3)CC2)cc1` [Compound 7-105, N-(1-(4-cyanobenzyl)piperidin-4-yl)-6-(4-(4-methoxybenzoyl)piperidine-1-carbonyl)-4-methylnicotinamide]: the EC50 was < 1000 nM. The value for `O=C(NC1CCN(Cc2ccc(OC(F)(F)F)cc2)CC1)c1ccc(C(=O)N2CCC(Oc3cccc(NC(=O)C4CC4)c3)CC2)nc1` [Compound 7-108, 6-(4-(3-(cyclopropanecarboxamido)phenoxy)piperidine-1-carbonyl)-N-(1-(4-(trifluoromethoxy)benzyl)piperidin-4-yl)nicotinamide] was < 1000 nM; that for `COc1ccc(CN2CCC(NC(=O)c3ccc(C(=O)N4CCC(C(=O)c5ccc(N6CCCC6)cc5)CC4)nc3)CC2)cc1` [Compound 7-109, N-(1-(4-methoxybenzyl)piperidin-4-yl)-6-(4-(4-(pyrrolidin-1-yl)benzoyl)piperidine-1-carbonyl)nicotinamide] was < 1000 nM; that for `O=C(NC1CCN(Cc2ccc(OC(F)(F)F)cc2)CC1)c1ccc(C(=O)N2CCC(C(=O)c3ccc(N4CCCC4)cc3)CC2)nc1` [Compound 7-110, 6-(4-(4-(pyrrolidin-1-yl)benzoyl)piperidine-1-carbonyl)-N-(1-(4-(trifluoromethoxy)benzyl)piperidin-4-yl)nicotinamide] was < 1000 nM. Consider `O=C(NC1CCN(Cc2cccc(OC(F)(F)F)c2)CC1)c1ccc(C(=O)N2CCC(C(=O)c3ccc(N4CCCC4)cc3)CC2)nc1` [Compound 7-111, 6-(4-(4-(pyrrolidin-1-yl)benzoyl)piperidine-1-carbonyl)-N-(1-(3-(trifluoromethoxy)benzyl)piperidin-4-yl)nicotinamide], for which the EC50 was < 1000 nM. For the compound `N#Cc1ccc(O[C@H]2CC[C@@H](NC(=O)c3ccc(C(=O)N4CCC(C(=O)c5ccc(N6CCCC6)cc5)CC4)nc3)CC2)cc1` [Compound 7-112, N-((cis)-4-(4-cyanophenoxy)cyclohexyl)-6-(4-(4-(pyrrolidin-1-yl)benzoyl)piperidine-1-carbonyl)nicotinamide], the EC50 is < 1000 nM.

As for `COc1ccc(CN2CCC(NC(=O)c3ccc(C(=O)N4CCC(C(=O)c5ccc(N6CCCC6)cc5)CC4)nc3)CC2)cc1F` [Compound 7-113, N-(1-(3-fluoro-4-methoxybenzyl)piperidin-4-yl)-6-(4-(4-(pyrrolidin-1-yl)benzoyl)piperidine-1-carbonyl)nicotinamide], the EC50 is < 1000 nM. For `O=C(NC1CCN(Cc2ccc(N3CCCC3)cc2)CC1)c1ccc(C(=O)N2CCC(C(=O)c3ccc(N4CCCC4)cc3)CC2)nc1` [Compound 7-114, 6-(4-(4-(pyrrolidin-1-yl)benzoyl)piperidine-1-carbonyl)-N-(1-(4-(pyrrolidin-1-yl)benzyl)piperidin-4-yl)nicotinamide] the value was < 1000 nM. For `COc1ccc(C(=O)C2CCN(C(=O)c3ccc(C(=O)NC4CCNCC4)cn3)CC2)cc1` [Compound 7-115, 6-(4-(4-methoxybenzoyl)piperidine-1-carbonyl)-N-(piperidin-4-yl)nicotinamide] the value was 50000 to 100000 nM; for `CC(C)Oc1ccc(CN2CCC(NC(=O)c3ccc(C(=O)N4CCC(C(=O)c5ccc(N6CCCC6)cc5)CC4)nc3)CC2)cc1` [Compound 7-116, N-(1-(4-isopropoxybenzyl)piperidin-4-yl)-6-(4-(4-(pyrrolidin-1-yl)benzoyl)piperidine-1-carbonyl)nicotinamide], < 1000 nM; for `N#Cc1ccc(CN2CCC(NC(=O)c3ccc(C(=O)N4CCC(C(=O)c5ccc(N6CCCC6)cc5)CC4)nc3)CC2)cc1F` [Compound 7-117, N-(1-(4-cyano-3-fluorobenzyl)piperidin-4-yl)-6-(4-(4-(pyrrolidin-1-yl)benzoyl)piperidine-1-carbonyl)nicotinamide], < 1000 nM.

`N#Cc1ccc(CN2CCC(NC(=O)c3ccc(C(=O)N4CCC(Oc5ccc(S(=O)(=O)C(F)(F)F)cc5)CC4)nc3)CC2)cc1` [Compound 7-118, N-(1-(4-cyanobenzyl)piperidin-4-yl)-6-(4-(4-(trifluoromethylsulfonyl)phenoxy)piperidine-1-carbonyl)nicotinamide]: the EC50 is < 1000 nM. For `COc1ccc(CN2CCC(NC(=O)c3ccc(C(=O)N4CCC(Oc5ccc(C(=O)C6CC6)cc5)CC4)nc3)CC2)cc1` [Compound 7-120, 6-(4-(4-(cyclopropanecarbonyl)phenoxy)piperidine-1-carbonyl)-N-(1-(4-methoxybenzyl)piperidin-4-yl)nicotinamide] the value was < 1000 nM.
